The test system of one data set is MM1.S. The data set can be described thus: Cell Titer Glo viability assay, MM1.S. Format: cell-based. Particulars: Homo sapiens, read-out: Inhibition of Viability, EC50. The procedure: (§1) All procedures were performed at Gilead Sciences, Inc. in Branford, The compound of formula (I), cyclophosphamide, doxorubicin and vincristine sulfate were dissolved in DMSO to prepare stock solutions that were serially diluted three-fold in DMSO in a 96 well plate format at 1000× so the final starting assay concentrations tested would be 10 μM, 200 μM, 10 μM, and 1 μM respectively, for each compound. Compound plates were diluted 1:100 in RPMI without serum or additives creating a 10× stock. Cells were seeded into a 96-well plate at 10,000-20,000 cells per well in 100 μl of growth media appropriate to the cell line supplemented with 100 U/L penicillin-streptomycin. OCI-Ly3, OCI-Ly4 and OCI-Ly7 were grown in Iscove's+20% FBS, OCI-Ly19 was grown in alphaMEM+20% FBS, and all other cell lines were grown in RPMI+10% FBS. To each well, 11 μl of 10× compound was added in a final concentration of 0.1% DMSO and cells were incubated at 37° C. in 5% CO2 for 72 hours. Cell viability was assessed with Cell Titer Glo (Promega, Madison, Wis.) following the manufacturer's protocol on an Envision plate reader (Perkin Elmer, Waltham, Mass.). EC50 values were determined using a four parameter variable slope model with GraphPad Prism 6.0 software. All EC50 values represent mean values of from duplicate dose response curves.
For orientation: Cellular ATP, detected with luciferase, serves as a proxy for viable cell number.

For another data set, the system named is OCI-LY3. The data set can be described thus: Cell Titer Glo viability assay, OCI-LY3. Particulars: Homo sapiens, read-out: Inhibition of Viability, EC50. Format: cell-based. The procedure: as §1
The test system of a further data set is Pfeiffer. The data set can be described thus: Cell Titer Glo viability assay, Pfeiffer. Format: cell-based. Particulars: Homo sapiens, read-out: Inhibition of Viability, EC50. The procedure: as §1
The test system of a further data set is OPM-2. The data set can be described thus: Cell Titer Glo viability assay, OPM-2. Format: cell-based. The settings on record: Homo sapiens, read-out: Inhibition of Viability, EC50. The procedure: as §1
Another data set concerns SU-DHL-6. The data set can be described thus: Cell Titer Glo viability assay, SU-DHL-6. Format: cell-based. Particulars: Homo sapiens, read-out: Inhibition of Viability, EC50. Here is the method: as §1
The next data set has as its system Mino. The data set can be described thus: Cell Titer Glo viability assay, Mino. Format: cell-based. The settings on record: Homo sapiens, read-out: Inhibition of Viability, EC50. The procedure:
as §1

Another data set concerns WSU-NHL. The data set can be described thus: Cell Titer Glo viability assay, WSU-NHL. Particulars: Homo sapiens, read-out: Inhibition of Viability, EC50. Format: cell-based. Here is the method:
as §1

In the next data set the test system is DHL-10. The data set can be described thus: Cell Titer Glo viability assay, DHL-10, alone or with compound of Formula I (Example 3). The settings on record: for Fold shift: EC50 alone vs +300 nM Compound of Formula I. Here is the method:
All procedures were performed at Gilead Sciences, Inc. in Branford, Conn. […] Compound plates were diluted 1:100 in RPMI without serum or additives but containing either 1% DMSO or 3 μM of the compound of Formula I creating a 10× stock. The DLBCL cell line, DHL-10 was plated at 10,000 cells per well in RPMI supplemented with 10% FBS and 100 U/L penicillin-streptomycin. To each well containing cells, 11 μl of 10× compound mixture in serum-free media was added in a final concentration of 0.2% DMSO and cells were incubated at 37° C. in 5% CO2 for 72 hours. Cell viability was assessed using Cell Titer Glo (CTG, Promega, Madison, Wis.) following the manufacturer's protocol on an Envision plate reader (Perkin Elmer, Waltham, Mass.). CTG signals were recorded for individual compound treatments and combinations. EC50 values were determined using a four parameter variable slope model with GraphPad Prism 6.0 software.

Another data set concerns SU-DHL-4. The data set can be described thus: Cell Titer Glo viability assay, SU-DHL-4. Format: cell-based. The settings on record: Homo sapiens, read-out: Inhibition of Viability, EC50. Here is the method: as §1
Another data set relates to Karpas 422. The data set can be described thus: Cell Titer Glo viability assay, Karpas 422. Format: cell-based. Particulars: Homo sapiens, read-out: Inhibition of Viability, EC50. The procedure:
as §1

Another data set has as its system KMS-11. The data set can be described thus: Cell Titer Glo viability assay, KMS-11. Format: cell-based. The settings on record: Homo sapiens, read-out: Inhibition of Viability, EC50. The procedure: as §1
Data set [1] is described as follows: Cell Titer Glo viability assay, summary over all cell lines tested. Format: cell-based. Particulars: B-cell; range over the 17 cell lines of Table 1; read-out: EC50 values to inhibit cell viability, range over cell lines. Here is the method:
as §1

The test system of another data set is OCI-LY7. The data set can be described thus: Cell Titer Glo viability assay, OCI-LY7. Format: cell-based. Particulars: Homo sapiens, read-out: Inhibition of Viability, EC50. Here is the method: as §1
A further data set deals with SU-DHL-10. The data set can be described thus: Cell Titer Glo viability assay, SU-DHL-10. Format: cell-based. Particulars: Homo sapiens, read-out: Inhibition of Viability, EC50. The procedure: as §1
Another data set relates to RPMI-8266. The data set can be described thus: Cell Titer Glo viability assay, RPMI-8266. Format: cell-based. Particulars: read-out: Inhibition of Viability, EC50. The procedure:
as §1

The subject of the next data set is OCI-LY4. The data set can be described thus: Cell Titer Glo viability assay, OCI-LY4. Format: cell-based. Particulars: read-out: Inhibition of Viability, EC50. Here is the method: as §1
The next data set deals with WSU-FSCCL. The data set can be described thus: Cell Titer Glo viability assay, WSU-FSCCL. Format: cell-based. Particulars: read-out: Inhibition of Viability, EC50. The procedure:
as §1

The subject of another data set is OCI-LY19. The data set can be described thus: Cell Titer Glo viability assay, OCI-LY19. Format: cell-based. The settings on record: Homo sapiens, read-out: Inhibition of Viability, EC50. Here is the method: as §1
The subject of the next data set is SU-DHL-2. The data set can be described thus: Cell Titer Glo viability assay, SU-DHL-2. Format: cell-based. Particulars: Homo sapiens, read-out: Inhibition of Viability, EC50. The procedure: as §1
The conditions of data set [2]: in vivo; cited from earlier work.
Data set [3] has as its system 10 diffuse large B-cell lymphoma (DLBCL), 4 multiple myeloma (MM), 2 follicular lymphoma (FL), and 1 mantle cell lymphoma (MCL) cell lines. The data set can be described thus: Cell Titer Glo viability assay, summary over all cell lines tested. Format: cell-based. The settings on record: at concentrations <10000 nM. The procedure:
as §1

Setting [4] is: Homo sapiens, 72 h, read-out: Inhibition of cell viability EC50, No Compound of Formula I.
The mark [5] stands for this setting: read-out: Inhibition of cell viability EC50, +300 nM Compound of Formula I, DHL-10, in combination with 300 nM compound of Formula I, 72 hours.

These results are taken from patent US10080756B2, “Combination methods for treating cancers” (Gilead Sciences, Inc., priority 2014, dated 2018).

The structures appear in SMILES notation. Read-outs that look alike come from different tables or passages of the source.

A word on the EC50: it is the midpoint of the concentration-response curve. As to `COc1cccc2c1C(=O)c1c(O)c3c(c(O)c1C2=O)C[C@@](O)(C(=O)CO)C[C@@H]3O[C@H]1C[C@H](N)[C@H](O)[C@H](C)O1` [Doxorubicin, doxorubicin], the EC50 amounted to 66 nM with MM1.S (MM, single agent, 72 hours); 26 nM in the data set with OCI-LY3 (OCI-LY3, DLBCL, single agent, 72 hours); 198 nM with Pfeiffer (DLBCL, single agent, 72 hours); 557 nM in the data set on OPM-2 (OPM-2, MM, single agent, 72 hours); 125 nM in the data set on SU-DHL-6 (SU-DHL-6, DLBCL, single agent, 72 hours); 114 nM with Mino (Mino, MCL, single agent, 72 hours). Moreover, the EC50 with WSU-NHL (FL, single agent, 72 hours) is 128 nM; with DHL-10 (setting [4]) it was 152 nM; in the data set on DHL-10 (setting [5]), 161 nM; with SU-DHL-4 (SU-DHL-4, DLBCL, single agent, 72 hours), 215 nM; with Karpas 422 (Karpas 422, DLBCL, single agent, 72 hours), 305 nM; in the data set on KMS-11 (KMS-11, MM, single agent, 72 hours), 469 nM. The EC50 is 3.1 to 557 nM in data set [1]; 199 nM in the data set with OCI-LY7 (OCI-LY7, DLBCL, single agent, 72 hours); 195 nM in the data set on SU-DHL-10 (SU-DHL10, SU-DHL-10, DLBCL, single agent, 72 hours); 176 nM with RPMI-8266 (RPMI8266, RPMI-8266, MM, single agent, 72 hours); 37 nM in the data set on OCI-LY4 (OCI-LY4, DLBCL, single agent, 72 hours); 52 nM in the data set with WSU-FSCCL (WSU-FSCCL, FL, single agent, 72 hours). Besides, the EC50 with OCI-LY19 (OCI-LY19, DLBCL, single agent, 72 hours) amounted to 3.1 nM; in the data set on SU-DHL-2 (SU-DHL-2, DLBCL, single agent, 72 hours), 216 nM.

Turning to `CC[C@]1(O)C[C@@H]2CN(CCc3c([nH]c4ccccc34)[C@@](C(=O)OC)(c3cc4c(cc3OC)N(C)[C@H]3[C@@](O)(C(N)=O)[C@H](O)[C@]5(CC)C=CCN6CC[C@]43[C@@H]65)C2)C1` [Vindesine, vindesine], in [2], the serum half-life is 24 h.

With `COc1ccc(/C=C\c2cc(OC)c(OC)c(OC)c2)cc1O` [Combretastatin A4, combretastatin A4], in the data set with DHL-10 (DHL-10), the Fold shift was 1.2. Moreover, the EC50 with DHL-10 (setting [5]) was found to be 4.8 nM; in the data set with DHL-10 (read-out: Inhibition of cell viability EC50, No Compound of Formula I, DHL-10, compound alone, 72 hours) it was 5.9 nM.

Regarding `O=P1(N(CCCl)CCCl)NCCCO1` (centres unmarked) [Cyclophosphamide, cyclophosphamide], the EC50 is over 10000 nM in the data set with MM1.S (72 h); over 10000 nM in the data set on OCI-LY3 (OCI-Ly3, 72 h); over 10000 nM in the data set with Pfeiffer (72 h); over 10000 nM in the data set on OPM-2 (OPM-2, 72 h); over 10000 nM in the data set with SU-DHL-6 (SU-DHL-6, 72 h); over 10000 nM in the data set with Mino (MINO, 72 h). The EC50 is over 10000 nM with WSU-NHL (72 h); over 10000 nM in the data set with SU-DHL-4 (SU-DHL-4, 72 h); over 10000 nM in the data set with Karpas 422 (KARPAS-422, 72 h); over 10000 nM with KMS-11 (KMS-11, 72 h); over 10000 nM in the data set on OCI-LY7 (OCI-Ly7, 72 h); over 10000 nM with SU-DHL-10 (SU-DHL10, 72 h). Moreover, the EC50 is over 10000 nM in the data set with RPMI-8266 (RPMI8266, 72 h); over 10000 nM in the data set on OCI-LY4 (72 h); over 10000 nM with WSU-FSCCL (72 h); over 10000 nM with OCI-LY19 (OCI-LY19, 72 h); over 10000 nM with SU-DHL-2 (SU-DHL-2, 72 h). The “inhibition of cell viability in any of the cell lines tested” value in data set [3] was “did not show inhibition cell viability”.

In the case of `COc1cc2c(c(OC)c1OC)-c1ccc(OC)c(=O)cc1[C@@H](NC(C)=O)CC2` [Colchicine, colchicine], in the data set on DHL-10 (DHL-10), the Fold shift is listed as 1.0. In addition, the EC50 with DHL-10 (setting [4]) is 13.5 nM; with DHL-10 (setting [5]), 14.2 nM.

As to `CC(=O)O[C@H]1C(=O)[C@@]2(C)[C@H]([C@H](OC(=O)c3ccccc3)[C@]3(O)C[C@H](OC(=O)[C@H](O)[C@@H](NC(=O)c4ccccc4)c4ccccc4)C(C)=C1C3(C)C)[C@]1(OC(C)=O)CO[C@@H]1C[C@@H]2O` [Taxol, taxol], the values for the EC50 with DHL-10 (setting [4]) and in the data set with DHL-10 (setting [5]) were 7.1 nM and 5.6 nM, respectively.
